Laboratory results from paper PMC9841525, “Chemical Blockage of the Mitochondrial Rhomboid Protease PARL by Novel Ketoamide Inhibitors Reveals Its Role in PINK1/Parkin-Dependent Mitophagy” (Journal of Medicinal Chemistry, 2022).
*1 amine or outer side, *2 acyl side, *3 side chain or, on linkers, in order; H or OH if unused. Where a SMILES comes first, the peptide text is derived from it. [ ]: non-standard residue; d: D form. The star is where a group is joined. NH(4-phenylbutyl) = c1ccc(CCCCN*)cc1; X1 = C[C@H](N[*:1])C(=O)C(=O)[*:2]

Tested on: Parkin
Test: Parkin recruitment to mitochondria, subcellular fractionation and immunoblot
Format: cell-based, human
Conditions: HEK293 T-REx PINK1 cells, HA-Parkin-IRES-GFP; 5 μM compound 5, CCCP 10 μM or Antimycin A 30 μM
Experimental: Inducible stable Flp-In HEK293 T-REx cells expressing PINK1 were described previously.[33] HEK293 T-REx PINK1 and HEK293T cells were grown in DMEM (Gibco) supplemented with 10% (v/v) fetal bovine serum (ThermoFisher), 1% (v/v) GlutaMAX (Gibco), 1% (v/v) sodium pyruvate (Gibco), 125 μg/mL hygromycin (Invitrogen), and 10 μg/mL blasticidin (Gibco) or DMEM supplemented with 10% (v/v) fetal bovine serum, respectively, at 37 °C in 5% (v/v) CO2. For microscopy, cells were seeded on poly-L-lysine (Sigma)-coated slides. Transient plasmid transfections were performed using 25 kDa linear polyethylenimine (Polysciences). Plasmid (100 ng) encoding HA-Parkin-IRES-GFP, mito-mCherry or Parkin-mEGFP, or 500 ng plasmid encoding PGAM5-FLAG were used per 6-well. Total transfected DNA was 2 μg/well. For siRNA transfection, 2 × 10^5 cells were seeded per 6-well and on the next day transfected with 20 nM siRNA-oligonucleotide using lipofectamine RNAiMAX (ThermoFisher). Cells were analyzed 27 h post-transfection or five days post-siRNA-transfection. HEK293 T-REx PINK1 cells were induced with 0.3 μg/mL doxycycline for 24 h before further processing. Hoechst staining (1 μg/mL) was done immediately before adding treatment to the cells. Treatments were administered for the indicated times before processing; CCCP (Sigma) was always used as 10 μM for 3 h and Antimycin A (Sigma) as 30 μM for 3 h.
Unless mentioned otherwise, all steps were performed at 4 °C. For subcellular fractionation to separate cellular content into cytosolic and mitochondrial fractions, cells were washed with PBS, harvested in PBS-EDTA (1 mM EDTA, 0.2 g/L D-glucose), and centrifuged at 500 × g for 5 min. […]
For immunoblot analysis in other cases, cells were either processed as described above or washed with PBS and directly lysed with Tris-glycine SDS-PAGE sample buffer and heated for 15 min at 65 °C. […] For quantification, ImageJ was used (http://rsb.info.nih.gov/ij/). […]

SMILES: CC(=O)N[C@@H](C)C(=O)N[C@H](C(=O)N[C@@H](Cc1ccccc1)C(=O)N[C@@H](CC(C)C)C(=O)N[C@@H](C)C(=O)C(=O)NCCCCc1ccccc1)C(C)C [compound 5] (Ac-AVFL[X1]-{NH(4-phenylbutyl)})
- Parkin recruitment to the mitochondrial fraction: Parkin recruitment to the mitochondrial fraction, albeit in a lower quantity than in the two chemically induced stress conditions
